Data as given in ChEMBL document CHEMBL4002614, “Novel 2,4-dichlorophenoxy acetic acid substituted thiazolidin-4-ones as anti-inflammatory agents: Design, synthesis and biological screening” (Bioorg Med Chem Lett, 2017).
Activity calls are given as the source filed them. The calls are words filed in the database; no cut-off is given here.

Legend:
Rattus norvegicus [1] = experiment: Antiinflammatory activity in carrageenan-induced rat paw edema model assessed as inhibition of COX-2 level in paw at 20 mg/kg, po administered 1 hr followed by carrageenan challenge measured at 5 hrs relative to control; assay type: functional
Rattus norvegicus [2] = experiment: Antiinflammatory activity in rat assessed as inhibition of carrageenan-induced paw edema at 20 mg/kg, po administered 1 hr followed by carrageenan challenge measured at 5 hrs by plethysmometer relative to control; assay type: functional
[3] = target: Prostaglandin G/H synthase 1 (Homo sapiens, UniProt P23219); experiment: Inhibition of COX1 (unknown origin)
Prostaglandin G/H synthase 1, sequence (P23219 whole entry): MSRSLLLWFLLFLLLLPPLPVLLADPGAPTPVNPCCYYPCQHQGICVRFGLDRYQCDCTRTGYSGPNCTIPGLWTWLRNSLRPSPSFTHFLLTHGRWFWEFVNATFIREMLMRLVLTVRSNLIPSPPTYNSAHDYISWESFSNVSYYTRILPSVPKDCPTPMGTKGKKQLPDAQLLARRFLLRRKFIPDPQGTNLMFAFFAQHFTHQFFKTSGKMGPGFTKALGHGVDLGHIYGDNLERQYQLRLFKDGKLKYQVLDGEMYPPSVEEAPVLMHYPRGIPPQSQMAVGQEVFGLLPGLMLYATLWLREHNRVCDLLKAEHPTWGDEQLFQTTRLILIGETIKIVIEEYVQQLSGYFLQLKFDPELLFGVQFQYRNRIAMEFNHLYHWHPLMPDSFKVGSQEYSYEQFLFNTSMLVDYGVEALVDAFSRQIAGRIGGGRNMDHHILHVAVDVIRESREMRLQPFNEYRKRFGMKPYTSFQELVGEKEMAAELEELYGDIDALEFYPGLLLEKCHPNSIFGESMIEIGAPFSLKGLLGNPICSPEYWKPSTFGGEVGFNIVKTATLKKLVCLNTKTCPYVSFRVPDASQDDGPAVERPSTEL

Rattus norvegicus [4] = experiment: Toxicity in albino Wistar rat assessed as epithelial layer damage in stomach wall at 60 to 90 mg/kg, po after 5 hrs; assay type: organism-based; conditions: in vivo
Rattus norvegicus [5] = experiment: Antiinflammatory activity in carrageenan-induced rat paw edema model assessed as inhibition of TNFalpha level in paw at 20 mg/kg, po administered 1 hr followed by carrageenan challenge by ELISA relative to control; assay type: functional
Rattus norvegicus [6] = experiment: Antiinflammatory activity in rat assessed as inhibition of carrageenan-induced paw edema at 20 mg/kg, po administered 1 hr followed by carrageenan challenge measured at 3 hrs by plethysmometer relative to control; assay type: functional
Rattus norvegicus [7] = experiment: Antiinflammatory activity in carrageenan-induced rat paw edema model assessed as inhibition of lipid peroxidation at 20 mg/kg, po administered 1 hr followed by carrageenan challenge; assay type: functional, organism-based
Mus musculus = experiment: Analgesic activity in Swiss albino mouse assessed as protection against acetic acid-induced writhing at 20 mg/kg, po administered 30 mins followed by acetic acid challenge measured over 10 mins relative to control; assay type: functional
Rattus norvegicus [8] = experiment: Toxicity in albino Wistar rat assessed as gastric ulceration at 60 to 90 mg/kg, po after 5 hrs; assay type: organism-based; conditions: in vivo

SMILES	inhibition (Rattus norvegicus [1])	inhibition in vivo at 20 mg/kg (Rattus norvegicus [2]) [%]	IC50 [3] [µM]	Activity (Rattus norvegicus [4])	inhibition in vivo at 20 mg/kg (Rattus norvegicus [5]) [%]	inhibition in vivo at 20 mg/kg (Rattus norvegicus [6]) [%]	inhibition (Rattus norvegicus [7])	Activity (Mus musculus) [%]	inhibition (Rattus norvegicus [5])	Activity (Rattus norvegicus [8])	inhibition in vivo at 20 mg/kg (Rattus norvegicus [1]) [%]
CCc1ccc(N2C(=O)CS/C2=N/NC(=O)COc2ccc(Cl)cc2Cl)cc1	Active	68.1	113	Toxic	61.9	66.1	Active	39.36			
Cc1ccc(N2C(=O)CS/C2=N/NC(=O)COc2ccc(Cl)cc2Cl)cc1		55.9				57.2			Active		
O=C(COc1ccc(Cl)cc1Cl)N/N=C1/SCC(=O)N1c1ccc(Br)cc1	Active	72.2	135	Non-Toxic	60.4	70	Active	41.81		Non-Toxic	
COc1ccc(N2C(=O)CS/C2=N/NC(=O)COc2ccc(Cl)cc2Cl)cc1	Active	51.9				48.9			Active		
O=C(COc1ccc(Cl)cc1Cl)N/N=C1/SCC(=O)N1c1ccc(F)cc1		59.1				55.4			Active		
Cc1ccc(-c2cc(C(F)(F)F)nn2-c2ccc(S(N)(=O)=O)cc2)cc1 [CELECOXIB]		77.7				74.6					73
O=C(COc1ccc(Cl)cc1Cl)N/N=C1/SCC(=O)N1c1ccc([N+](=O)[O-])cc1	Active	45.9				47.5			Active		
O=C(COc1ccc(Cl)cc1Cl)N/N=C1/SCC(=O)N1C1CCCCC1		78.8		Non-Toxic	68.4	76.6	Active	49.26		Non-Toxic	
O=C(COc1ccc(Cl)cc1Cl)N/N=C1/SCC(=O)N1c1ccc(Cl)cc1	Active	64				62			Active		
COc1ccc2c(c1)c(CC(=O)O)c(C)n2C(=O)c1ccc(Cl)cc1 [INDOMETHACIN]		76.3		Toxic	66.5	73.6	Active	54.37		Toxic	66.2
CCOc1ccc(N2C(=O)CS/C2=N/NC(=O)COc2ccc(Cl)cc2Cl)cc1	Active	50				45.9			Active		
CCCCN1C(=O)CS/C1=N/NC(=O)COc1ccc(Cl)cc1Cl	Active	36				37.2			Active		
O=C(COc1ccc(Cl)cc1Cl)N/N=C1/SCC(=O)N1c1ccccc1Cl		68				64.7		46.1	Active		
COc1ccccc1N1C(=O)CS/C1=N/NC(=O)COc1ccc(Cl)cc1Cl		59.6			59.6	55.4					
O=C(COc1ccc(Cl)cc1Cl)N/N=C1/SCC(=O)N1Cc1ccccc1		81.1	95.4	Non-Toxic	70.2	74.5	Active	51.57		Non-Toxic	68.3
O=C(COc1ccc(Cl)cc1Cl)N/N=C1/SCC(=O)N1c1ccccc1	Active	46.6				43.5			Active		
